# Source: patent US11814364B2, “Pyridine N-oxide derivatives useful as factor XIa inhibitors” (Janssen Pharmaceutica NV, priority 2021, dated 2023)
# Target: human plasma kallikrein (Homo sapiens, UniProt P03952)
# Test: Kallikrein inhibition FLINT assay with quenched AMC peptide substrate Z-Gly-Pro-Arg-AMC (end point EP or kinetic KIN reads)
# Type: biochemical
# Conditions: kinetic reads at 5 min intervals over 30 min; read-out: Kallikrein (KIN) IC50
# Method in brief: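 Enzyme and compound were preincubated 30 min before adding 50 μM AMC substrate in pH 7.5 Tris/NaCl/CaCl2/BSA/CHAPS buffer. AMC release was read at 30 min endpoint or every 5 min.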
# Sequence of human plasma kallikrein (P03952 391-638 limits assumed): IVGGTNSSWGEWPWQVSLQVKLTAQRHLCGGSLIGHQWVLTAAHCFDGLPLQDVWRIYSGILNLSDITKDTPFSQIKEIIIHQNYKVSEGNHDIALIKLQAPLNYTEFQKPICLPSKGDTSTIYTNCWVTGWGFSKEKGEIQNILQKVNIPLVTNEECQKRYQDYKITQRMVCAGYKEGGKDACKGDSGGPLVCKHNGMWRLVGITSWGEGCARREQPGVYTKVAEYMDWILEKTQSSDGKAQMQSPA
# Sequence of human plasma kallikrein (P03952 20-390 partner limits assumed): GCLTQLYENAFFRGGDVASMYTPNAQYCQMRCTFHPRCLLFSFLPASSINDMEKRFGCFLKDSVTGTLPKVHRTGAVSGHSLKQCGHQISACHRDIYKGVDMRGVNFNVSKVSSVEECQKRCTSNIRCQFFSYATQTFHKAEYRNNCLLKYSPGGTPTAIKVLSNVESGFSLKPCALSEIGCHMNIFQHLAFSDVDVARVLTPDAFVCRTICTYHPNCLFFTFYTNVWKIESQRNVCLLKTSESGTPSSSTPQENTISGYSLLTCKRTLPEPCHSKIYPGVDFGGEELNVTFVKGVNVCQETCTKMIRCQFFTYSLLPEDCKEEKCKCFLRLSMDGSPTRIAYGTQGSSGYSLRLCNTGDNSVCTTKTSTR
row,SMILES,IC50 [nM]
1,COC(=O)Nc1ccc(-c2cnn(C(CC3CC(C)(C)C3)c3ccc(-c4c(-n5cnnn5)ccc(Cl)c4F)c[n+]3[O-])c2)cc1 (centres unmarked) [Example P126],248
2,CCOc1cc(C(CC2CC2)n2cc(-c3cnn(C)c(=O)c3)cn2)[n+]([O-])cc1-c1c(-n2cnnn2)ccc(Cl)c1F (centres unmarked) [Example P137],151
3,Cn1cc(-c2cnn(C(CC3CC3)c3ccc(-c4c(-n5cnnn5)ccc(Cl)c4F)c[n+]3[O-])c2)cn1 (centres unmarked) [Example P288],841
4,COC(=O)Nc1ccc(-c2cnn(C(Cc3ccc(Cl)cc3)c3ccc(-c4cc(Cl)ccc4-n4cnnn4)c[n+]3[O-])c2)cc1 (centres unmarked) [Example P92],45.5
5,NC(=O)c1ccc(-c2cnn(C(Cn3cccn3)c3ccc(-c4c(-n5cc(C(F)(F)F)nn5)ccc(Cl)c4F)c[n+]3[O-])c2)cc1F (centres unmarked) [Example P948],11.8
6,COC(=O)NC(C)c1ccc(-c2cnn(C(Cc3ccccc3)c3ccc(-c4cc(Cl)ccc4-n4cnnn4)c[n+]3[O-])c2)cc1 (centres unmarked) [Example P58],28.5
7,COCC[C@H](c1ccc(-c2c(C(F)F)ccc(Cl)c2F)c[n+]1[O-])n1cc(-c2ccc(C(=O)O)cc2)cn1 [Example Q34],50.5
8,COC(=O)Nc1ccc(-c2cnn(C(CC3CC3C(N)=O)c3ccc(-c4c(-n5cnnn5)ccc(Cl)c4F)c[n+]3[O-])c2)cc1 (centres unmarked) [Example P249],668
9,COC(=O)Nc1ccc(-c2cnn(C(CC3CC3C(=O)N3CCCCC3)c3ccc(-c4c(-n5cnnn5)ccc(Cl)c4F)c[n+]3[O-])c2)cc1 (centres unmarked) [Example P231],366
10,[O-][n+]1cc(-c2c(-n3cnnn3)ccc(Cl)c2F)ccc1[C@@H](CCOC(F)F)n1cc(-c2c(F)cncc2Cl)cn1 [Example P583],1.5
11,"O=C(O)c1ccc(-c2cnn(C(Cc3ccn(C(F)F)n3)c3ccc(-c4c(C(F)F)ccc(Cl)c4F)c[n+]3[O-])c2)cc1 (single isomer, unassigned) [Example Q70]",> 274
12,COCC[C@H](c1ccc(-c2c(-n3cc(OC(F)F)nn3)ccc(Cl)c2F)c[n+]1[O-])n1cc(-c2cnnn2C)cn1 [Example P616],205
13,NC(=O)C1CC1CC(c1ccc(-c2c(-n3cnnn3)ccc(Cl)c2F)c[n+]1[O-])n1cc(-c2ccc(N)nc2F)cn1 (racemic) [Example P201],73.9
14,"[O-][n+]1cc(-c2c(-n3cnnn3)ccc(Cl)c2F)ccc1C(Cn1cc(F)cn1)n1cc(-c2ccnn2C(F)F)cn1 (single isomer, unassigned) [Example P644]",14.5
15,"COC(=O)N(C)CC(c1ccc(-c2c(-n3cnnn3)ccc(Cl)c2F)c[n+]1[O-])n1cc(-c2cc[n+]([O-])c(C(F)F)c2)cn1 (single isomer, unassigned) [Example P392]",64.1
16,[O-][n+]1cc(-c2c(-n3cnnn3)ccc(Cl)c2F)ccc1C(Cn1ccc(C(F)(F)F)n1)n1cc(-c2ccnc(F)c2)cn1 (centres unmarked) [Example P357],23.7
17,COC(=O)Nc1ccc(-c2cnn(C(Cc3ccn(C)n3)c3ccc(-c4c(-n5cnnn5)ccc(Cl)c4F)c[n+]3[O-])c2)cc1 (racemic) [Example P327],29.1
18,COCC[C@H](c1ccc(-c2c(-n3cnnn3)ccc(Cl)c2F)c[n+]1[O-])n1cc(-c2nn(C(F)F)cc2Cl)cn1 [Example P576],62.4
19,CC(C)(C)c1cnn(CC(c2ccc(-c3c(-n4cc(C(F)(F)F)nn4)ccc(Cl)c3F)c[n+]2[O-])n2cc(-c3ccc(C(N)=O)c(F)c3)cn2)c1 (centres unmarked) [Example P951],316

row,SMILES,IC50 [nM]
1,Cn1ncnc1-c1cnn(C(CC2CC2)c2ccc(-c3c(-n4cc(C(F)(F)F)nn4)ccc(Cl)c3F)c[n+]2[O-])c1 (centres unmarked) [Example P874],41.4
2,NC(=O)COc1ccc(CC(c2ccc(-c3cc(Cl)ccc3-n3cnnn3)c[n+]2[O-])n2cc(-c3ccc(C(=O)O)cc3)cn2)cc1 (centres unmarked) [Example P138],4.1
3,"CC(C)C(=O)N(C)CC(c1ccc(-c2c(-n3cnnn3)ccc(Cl)c2F)c[n+]1[O-])n1cc(-c2ccnc(C(F)(F)F)c2)cn1 (single isomer, unassigned) [Example P421]",41.1
4,CC(=O)N(C)CC(c1ccc(-c2c(-n3cnnn3)ccc(Cl)c2F)c[n+]1[O-])n1cc(-c2ccncc2)cn1 (centres unmarked) [Example P302],54.6
5,Cn1ccc(CC(c2ccc(-c3c(C(F)F)ccc(Cl)c3F)c[n+]2[O-])n2cc(-c3ccc(C(=O)O)cc3)cn2)n1 (centres unmarked) [Example Q49],2.3
6,COc1cc(C(CC2CC2)n2cc(-c3ncnn3C(F)F)cn2)[n+]([O-])cc1-c1c(C#N)ccc(Cl)c1F (centres unmarked) [Example Q56],58.9
7,"[O-][n+]1cc(-c2c(-n3cnnn3)ccc(Cl)c2F)ccc1C(CCOC(F)F)n1cc(-c2ccnc(C(F)(F)F)n2)cn1 (single isomer, unassigned) [Example P401]",18.6
8,"O=C(O)c1ccc(-c2cnn(C(c3ccc(-c4cc(Cl)ccc4-n4cnnn4)c[n+]3[O-])C(O)c3ccccc3)c2)cc1 (single isomer, unassigned) [Example P118]",64.9
9,[O-][n+]1cc(-c2c(-n3cnnn3)ccc(Cl)c2F)ccc1C(Cn1cc(F)cn1)n1cc(-c2ccnn2C(F)F)cn1 (centres unmarked) [Example P645],893
10,[O-][n+]1cc(-c2c(-n3cnnn3)ccc(Cl)c2F)ccc1C(CC1CC1)n1cc(-c2ccc3c(c2)OCCO3)cn1 (centres unmarked) [Example P271],252
11,[O-][n+]1ccc(-c2cnn(C(Cn3cc(F)cn3)c3ccc(-c4c(-n5cnnn5)ccc(Cl)c4F)c[n+]3[O-])c2)cc1 (centres unmarked) [Example P360],36.6
12,"COC(=O)Nc1ccc(-c2cnn(C(Cc3ccn(C)n3)c3ccc(-c4c(-n5cnnn5)ccc(Cl)c4F)c[n+]3[O-])c2)cc1 (single isomer, unassigned) [Example P330]",3.3
13,Cn1ncnc1-c1cnn(C(Cc2nnco2)c2ccc(-c3c(-n4cc(C(F)(F)F)nn4)ccc(Cl)c3F)c[n+]2[O-])c1 (centres unmarked) [Example P935],487
14,Cn1nnc(F)c1-c1cnn(C(CCOC(F)F)c2ccc(-c3c(-c4cnco4)ccc(Cl)c3F)c[n+]2[O-])c1 (centres unmarked) [Example P846],238
15,O=C(O)C1CCCN(C(=O)C2CC2CC(c2ccc(-c3c(-n4cnnn4)ccc(Cl)c3F)c[n+]2[O-])n2cc(-c3ccccc3)cn2)C1 (centres unmarked) [Example P224],591
16,O=C(O)c1ccc(-c2cnn(C(CN3CCCC3=O)c3ccc(-c4cc(Cl)ccc4-n4cnnn4)c[n+]3[O-])c2)cc1 (centres unmarked) [Example P163],26.9
17,O=C(O)c1ccc(-c2cnn(C(CC3CC3)c3ccc(-c4c(C(F)F)ccc(Cl)c4F)c[n+]3[O-])c2)cc1 (centres unmarked) [Example Q16],305
18,"N#Cc1cnn(C(F)F)c1-c1cnn(C(CC2CC2)c2ccc(-c3c(-n4cnnn4)ccc(Cl)c3F)c[n+]2[O-])c1 (single isomer, unassigned) [Example P663]",933
19,Cn1ncnc1-c1cnn([C@H](Cc2ccn(C(F)F)n2)c2ccc(-c3c(-n4cc(Cl)nn4)ccc(Cl)c3F)c[n+]2[O-])c1 [Example P794],55.8

row,SMILES,IC50 [nM]
1,"COC(=O)Nc1ccc(-c2cnn(C(Cc3ccc(Cl)cc3)c3ccc(-c4c(-n5cnnn5)ccc(Cl)c4F)c[n+]3[O-])c2)cc1 (single isomer, unassigned) [Example P159]",215
2,COc1cc(C(Cc2ccn(C(F)F)n2)n2cc(-c3ccc(C(=O)O)c(F)c3)cn2)[n+]([O-])cc1-c1c(C(F)F)ccc(Cl)c1F (centres unmarked) [Example Q74],11
3,"CC(=O)Nc1cnc(C(F)(F)F)cc1-c1cnn(C(CC2CC2)c2ccc(-c3c(-n4cnnn4)ccc(Cl)c3F)c[n+]2[O-])c1 (single isomer, unassigned) [Example P842]",346
4,CCOC(=O)C1CC1CC(c1ccc(-c2cc(Cl)ccc2-n2cnnn2)c[n+]1[O-])n1cc(-c2ccc(C(=O)O)cc2)cn1 (centres unmarked) [Example P67],362
5,[O-][n+]1cc(-c2c(-n3cnnn3)ccc(Cl)c2F)ccc1[C@@H](CCOC(F)F)n1cc(-c2scnc2C(F)(F)F)cn1 [Example P580],13.5
6,[O-][n+]1cc(-c2c(-n3cnnn3)ccc(Cl)c2F)ccc1[C@@H](CCOC(F)F)n1cc(-c2nn(C(F)F)cc2Cl)cn1 [Example P572],24.1
7,COCCC(c1ccc(-c2c(-n3cnnn3)ccc(Cl)c2F)c[n+]1[O-])n1cc(C2CCN(C(=O)OC)CC2)cn1 (centres unmarked) [Example P166],923
8,COC(=O)Nc1ccc(-c2cnn(C(COC(C)C)c3ccc(-c4c(-n5cnnn5)ccc(Cl)c4F)c[n+]3[O-])c2)cc1 (centres unmarked) [Example P229],271
9,"O=C1CCCN1CC(c1ccc(-c2c(-n3cnnn3)ccc(Cl)c2F)c[n+]1[O-])n1cc(-c2cc[n+]([O-])c(C(F)F)c2)cn1 (single isomer, unassigned) [Example P362]",38.3
10,COC(=O)Nc1ccc(-c2cnn(C(CC3CCC(C)CC3)c3ccc(-c4c(-n5cnnn5)ccc(Cl)c4F)c[n+]3[O-])c2)cc1 (centres unmarked) [Example P129],136
11,[O-][n+]1cc(-c2c(-n3cnnn3)ccc(Cl)c2F)ccc1[C@@H](CCOC(F)F)n1cc(-c2ccnn2C(F)F)cn1 [Example P564],5.6
12,"COCCC(c1ccc(-c2c(-n3cnnn3)ccc(Cl)c2F)c[n+]1[O-])n1cc(-c2ccc(NC(=O)OC)cc2)cn1 (single isomer, unassigned) [Example P84]",14.5
13,N#Cc1cn(-c2ccc(Cl)c(F)c2-c2ccc([C@@H](CCOC(F)F)n3cc(-c4ncnn4C(F)F)cn3)[n+]([O-])c2)nn1 [Example P790],35.8
14,[O-][n+]1cc(-c2c(-n3cnnn3)ccc(Cl)c2F)ccc1C(CCOC(F)(F)F)n1cc(-c2ccncn2)cn1 (centres unmarked) [Example P366],151
15,O=C(O)c1ccc(-c2cnn(C(c3cn(C4CCNCC4)nn3)c3ccc(-c4c(-n5cnnn5)ccc(Cl)c4F)c[n+]3[O-])c2)cc1 (centres unmarked) [Example P52],7710
16,[O-][n+]1ccc(-c2cnn(C(Cn3cccn3)c3ccc(-c4c(-n5cnnn5)ccc(Cl)c4F)c[n+]3[O-])c2)cc1 (centres unmarked) [Example P348],27.2
17,[O-][n+]1cc(-c2cc(Cl)ccc2-n2cnnn2)ccc1C(Cn1cccn1)n1cc(-c2ccnc(C3CC3)c2)cn1 (centres unmarked) [Example P286],23
18,O=C(Cc1cnn(CC(c2ccc(-c3c(-n4cnnn4)ccc(Cl)c3F)c[n+]2[O-])n2cc(-c3ccnc(C(F)(F)F)c3)cn2)c1)N1CCCCC1 (centres unmarked) [Example P475],324
